Laboratory results reported in US5338758A (Schering Corporation, priority 1992, dated 1994).

Experiments:
[1] = system: PAF-Induced Human Platelet Aggregation; experiment: PAF-induced human platelet aggregation assay (in vitro PAF antagonism); type: cell-based; conditions: for IC50: human platelet-rich plasma, 37° C., 2 min preincubation, PAF 1-5×10^-8 M, 0.1% DMSO, read-out: IC50 (PAF activity, inhibition of PAF-induced human platelet aggregation)
Experimental: Preparation of Platelet-Rich Plasma (PRP): Human blood (50 ml) is collected from healthy male donors. The blood is mixed with an anticoagulant solution (5 ml) containing sodium citrate (3.8%) and dextrose (2%). Blood is centrifuged at 200×g for 20 min. and the supernatant PRP is carefully transferred into a polypropylene tube. Platelet-poor-plasma (PPP) is prepared by centrifuging PRP at 800×g for 15 min. in a Beckman Microfuge B. PRP is used within 3 hours of drawing the blood.
Platelet Aggregation Assay: When an aggregating agent such as PAF is added to PRP, platelets aggregate. An aggregometer quantifies this aggregation by measuring light (infra-red) transmission through PRP and comparing it to transmission through PPP. The aggregation assays are performed using a dual-channel aggregometer (Model 440, Chrono-Log Corp., Havertown, Pa.). PRP (0.45 ml) in aggregometer curettes is continually stirred (37° C.). Solutions of test compounds in DMSO or vehicle alone (final concentration of DMSO=0.1% v/v) are added to the PRP, and, after incubation for 2 min., 10- 15 μl aliquots of PAF solution are added so as to achieve a final concentration of 1-5×10^-8 M. Incubations are continued until the increase in light transmission reaches a maximum (usually about 2 min). Values for inhibition are calculated by comparing maximal aggregation obtained in the absence and the presence of the compound. […]

Solubility = type: physicochemical
PAF = conditions: disclosed in JP 03,216,197; cited from earlier work

Row | Compound | IC50 [1] [nM] | solubility in acetone (Solubility) | solubility in chloroform (Solubility) | solubility in dichloromethane (Solubility) | solubility in dimethyl sulfoxide (Solubility) | solubility in ethyl acetate (Solubility) | solubility in hexane (Solubility) | solubility in methanol (Solubility) | solubility in petroleum ether (Solubility) | solubility in water (Solubility) | PAF antagonistic properties (in words) [1] | PAF antagonist activity (in words) (PAF)
1 | CC1=CCCC2(C)OC2C(=O)C2=CC(O)C(C)C(C)(CC1)C2(C)O (centres unmarked) [Phomactin B, phomactin B] | – | – | – | – | – | – | – | – | – | – | – | PAF antagonist
2 | CC1=CCCC2(C)OC2C2(O)OCC3=C2C(O)CC(C)C3(C)CC1 (centres unmarked) [III] | 1260 | partially soluble | soluble | soluble | soluble | partially soluble | insoluble | partially soluble | insoluble | insoluble | antagonistic properties | –
3 | CC1=CCC2=CCC(C)C(C)(CCC(C)=CCC1)C2C (centres unmarked) [Compound IV] | > 36000 | soluble | soluble | soluble | partially soluble | partially soluble | partially soluble | partially soluble | – | insoluble | antagonistic properties | –

Further lines, with some results ahead:

Row | IC50 [1] [nM] | solubility in acetone (Solubility) | solubility in chloroform (Solubility) | solubility in dichloromethane (Solubility) | solubility in dimethyl sulfoxide (Solubility) | solubility in ethyl acetate (Solubility) | solubility in hexane (Solubility) | solubility in methanol (Solubility) | solubility in petroleum ether (Solubility) | solubility in water (Solubility) | Compound | PAF antagonistic properties (in words) [1] | PAF antagonist activity (in words) (PAF)
4 | 6960 | partially soluble | soluble | soluble | soluble | partially soluble | insoluble | partially soluble | insoluble | insoluble | C/C1=C\CCC2(C)O[C@H]2C(=O)C2=CC[C@H](C)[C@@](C)(CC1)[C@@H]2C=O (relative stereo) [Compound I] | antagonistic properties | –
5 | 1680 | partially soluble | soluble | soluble | soluble | partially soluble | insoluble | partially soluble | insoluble | insoluble | CC1=CCCC2(C)OC2C2(O)OCC3C2=C(O)CC(C)C3(C)CC1 (centres unmarked) [II] | antagonistic properties | –
